Data from PubChem BioAssay (NCI).
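Method: 48-hour compound exposure of cells in 96-well plates, five concentrations, linear interpolation of endpoints. TGI: concentration producing complete growth inhibition.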

Tests used:
Test in all cases: growth of human tumour cells (NCI), 48 h
CAKI-1 renal = test system: CAKI-1 renal
SF-295 CNS = test system: SF-295 CNS
SK-MEL-28 melanoma = test system: SK-MEL-28 melanoma
HCT-116 colon = test system: HCT-116 colon
XF 498 CNS = test system: XF 498 CNS
SK-OV-3 ovarian = test system: SK-OV-3 ovarian
M19-MEL melanoma = test system: M19-MEL melanoma
LOX IMVI melanoma = test system: LOX IMVI melanoma
OVCAR-3 ovarian = test system: OVCAR-3 ovarian
SK-MEL-2 melanoma = test system: SK-MEL-2 melanoma
RXF 393 renal = test system: RXF 393 renal
SW-620 colon = test system: SW-620 colon
TK-10 renal = test system: TK-10 renal
NCI-H460 lung = test system: NCI-H460 lung
UO-31 renal = test system: UO-31 renal
SNB-75 CNS = test system: SNB-75 CNS
UACC-62 melanoma = test system: UACC-62 melanoma
MOLT-4 leukemia = test system: MOLT-4 leukemia
LXFL 529 NSCLC = test system: LXFL 529 NSCLC
HOP-18 NSCLC = test system: HOP-18 NSCLC
DMS 114 small cell lung = test system: DMS 114 small cell lung
HCC-2998 colon = test system: HCC-2998 colon
CCRF-CEM leukemia = test system: CCRF-CEM leukemia
SF-539 CNS = test system: SF-539 CNS
OVCAR-5 ovarian = test system: OVCAR-5 ovarian
786-0 renal = test system: 786-0 renal
SNB-19 CNS = test system: SNB-19 CNS
KM20L2 colon = test system: KM20L2 colon
SNB-78 CNS = test system: SNB-78 CNS
IGROV1 ovarian = test system: IGROV1 ovarian
K-562 leukemia = test system: K-562 leukemia
NCI-H23 lung = test system: NCI-H23 lung
MALME-3M melanoma = test system: MALME-3M melanoma
KM12 colon = test system: KM12 colon
HT29 colon = test system: HT29 colon
U251 CNS = test system: U251 CNS
HCT-15 colon = test system: HCT-15 colon
OVCAR-8 ovarian = test system: OVCAR-8 ovarian
COLO 205 colon = test system: COLO 205 colon
RXF-631 renal = test system: RXF-631 renal
SN12C renal = test system: SN12C renal
SF-268 CNS = test system: SF-268 CNS
SK-MEL-5 melanoma = test system: SK-MEL-5 melanoma
NCI-H226 lung = test system: NCI-H226 lung
A498 renal = test system: A498 renal
EKVX NSCLC = test system: EKVX NSCLC
RPMI-8226 leukemia = test system: RPMI-8226 leukemia
ACHN renal = test system: ACHN renal
DMS 273 small cell lung = test system: DMS 273 small cell lung
M14 melanoma = test system: M14 melanoma
DLD-1 colon = test system: DLD-1 colon
HL-60(TB) leukemia = test system: HL-60(TB) leukemia
UACC-257 melanoma = test system: UACC-257 melanoma
A549 NSCLC = test system: A549 NSCLC
OVCAR-4 ovarian = test system: OVCAR-4 ovarian
HOP-62 NSCLC = test system: HOP-62 NSCLC
HOP-92 NSCLC = test system: HOP-92 NSCLC
SR leukemia = test system: SR leukemia
NCI-H522 lung = test system: NCI-H522 lung

O=C1C2C(C(=O)N1c1ccccc1)C1(Br)c3ccccc3C2(Br)C2C(=O)N(c3ccccc3)C(=O)C21 (configuration not stated)
TGI (CAKI-1 renal): > 100 µM | TGI (SF-295 CNS): > 100 µM | TGI (SK-MEL-28 melanoma): > 31.6 µM | TGI (HCT-116 colon): > 31.6 µM | TGI (XF 498 CNS): > 100 µM | TGI (SK-OV-3 ovarian): > 100 µM | TGI (M19-MEL melanoma): > 31.6 µM | TGI (LOX IMVI melanoma): > 31.6 µM | TGI (OVCAR-3 ovarian): > 31.6 µM | TGI (SK-MEL-2 melanoma): > 31.6 µM | TGI (RXF 393 renal): 27.1 µM | TGI (SW-620 colon): > 31.6 µM | TGI (TK-10 renal): > 31.6 µM | TGI (NCI-H460 lung): > 31.6 µM | TGI (UO-31 renal): > 31.6 µM | TGI (SNB-75 CNS): > 31.6 µM | TGI (UACC-62 melanoma): > 31.6 µM | TGI (MOLT-4 leukemia): > 31.6 µM | TGI (LXFL 529 NSCLC): > 31.6 µM | TGI (HOP-18 NSCLC): > 31.6 µM | TGI (DMS 114 small cell lung): > 31.6 µM | TGI (HCC-2998 colon): > 31.6 µM | TGI (CCRF-CEM leukemia): > 31.6 µM | TGI (SF-539 CNS): > 31.6 µM | TGI (OVCAR-5 ovarian): > 31.6 µM | TGI (786-0 renal): > 31.6 µM | TGI (SNB-19 CNS): > 31.6 µM | TGI (KM20L2 colon): > 31.6 µM | TGI (SNB-78 CNS): > 31.6 µM | TGI (IGROV1 ovarian): > 31.6 µM | TGI (K-562 leukemia): > 31.6 µM | TGI (NCI-H23 lung): > 31.6 µM | TGI (MALME-3M melanoma): > 31.6 µM | TGI (KM12 colon): > 31.6 µM | TGI (HT29 colon): > 31.6 µM | TGI (U251 CNS): > 31.6 µM | TGI (HCT-15 colon): > 31.6 µM | TGI (OVCAR-8 ovarian): > 100 µM | TGI (COLO 205 colon): > 31.6 µM | TGI (RXF-631 renal): > 100 µM | TGI (SN12C renal): > 31.6 µM | TGI (SF-268 CNS): > 31.6 µM | TGI (SK-MEL-5 melanoma): > 31.6 µM | TGI (NCI-H226 lung): > 31.6 µM | TGI (A498 renal): > 100 µM | TGI (EKVX NSCLC): > 31.6 µM | TGI (RPMI-8226 leukemia): > 31.6 µM | TGI (ACHN renal): > 31.6 µM | TGI (DMS 273 small cell lung): > 31.6 µM | TGI (M14 melanoma): > 31.6 µM | TGI (DLD-1 colon): > 31.6 µM | TGI (HL-60(TB) leukemia): > 31.6 µM | TGI (UACC-257 melanoma): > 31.6 µM | TGI (A549 NSCLC): > 31.6 µM | TGI (OVCAR-4 ovarian): > 100 µM

COc1ccc(NC(=O)/C(Cc2nc3ccccc3[nH]c2=O)=N\O)c(OC)c1
TGI (CAKI-1 renal): > 100 µM | TGI (SF-295 CNS): > 100 µM | TGI (HOP-62 NSCLC): > 100 µM | TGI (SK-MEL-28 melanoma): > 100 µM | TGI (HCT-116 colon): > 100 µM | TGI (XF 498 CNS): > 100 µM | TGI (SK-OV-3 ovarian): > 100 µM | TGI (HOP-92 NSCLC): > 100 µM | TGI (M19-MEL melanoma): > 100 µM | TGI (LOX IMVI melanoma): > 100 µM | TGI (OVCAR-3 ovarian): > 100 µM | TGI (RXF 393 renal): > 100 µM | TGI (SW-620 colon): > 100 µM | TGI (TK-10 renal): > 100 µM | TGI (NCI-H460 lung): > 100 µM | TGI (UO-31 renal): > 100 µM | TGI (SNB-75 CNS): > 100 µM | TGI (UACC-62 melanoma): > 100 µM | TGI (LXFL 529 NSCLC): > 100 µM | TGI (HOP-18 NSCLC): > 100 µM | TGI (DMS 114 small cell lung): > 100 µM | TGI (HCC-2998 colon): > 100 µM | TGI (CCRF-CEM leukemia): > 100 µM | TGI (SF-539 CNS): > 100 µM | TGI (OVCAR-5 ovarian): > 100 µM | TGI (786-0 renal): > 100 µM | TGI (SR leukemia): > 100 µM | TGI (SNB-19 CNS): > 100 µM | TGI (KM20L2 colon): > 100 µM | TGI (SNB-78 CNS): > 100 µM | TGI (IGROV1 ovarian): > 100 µM | TGI (K-562 leukemia): > 100 µM | TGI (NCI-H522 lung): > 100 µM | TGI (NCI-H23 lung): > 100 µM | TGI (MALME-3M melanoma): > 100 µM | TGI (KM12 colon): > 100 µM | TGI (HT29 colon): > 100 µM | TGI (U251 CNS): > 100 µM | TGI (HCT-15 colon): > 100 µM | TGI (OVCAR-8 ovarian): > 100 µM | TGI (COLO 205 colon): > 100 µM | TGI (RXF-631 renal): > 100 µM | TGI (SN12C renal): > 100 µM | TGI (SF-268 CNS): > 100 µM | TGI (SK-MEL-5 melanoma): > 100 µM | TGI (NCI-H226 lung): > 100 µM | TGI (A498 renal): > 100 µM | TGI (EKVX NSCLC): > 100 µM | TGI (RPMI-8226 leukemia): > 100 µM | TGI (ACHN renal): > 100 µM | TGI (M14 melanoma): > 100 µM | TGI (DLD-1 colon): > 100 µM | TGI (HL-60(TB) leukemia): > 100 µM | TGI (UACC-257 melanoma): > 100 µM | TGI (A549 NSCLC): > 100 µM | TGI (OVCAR-4 ovarian): > 100 µM

O=C(CC1C(=O)Nc2ccccc2S1=O)Nc1ccccc1 (configuration not stated)
TGI (CAKI-1 renal): > 100 µM | TGI (SF-295 CNS): > 100 µM | TGI (HOP-62 NSCLC): > 100 µM | TGI (SK-MEL-28 melanoma): > 100 µM | TGI (HCT-116 colon): > 100 µM | TGI (XF 498 CNS): > 100 µM | TGI (SK-OV-3 ovarian): 62.6 µM | TGI (HOP-92 NSCLC): > 100 µM | TGI (M19-MEL melanoma): > 100 µM | TGI (OVCAR-3 ovarian): > 100 µM | TGI (SK-MEL-2 melanoma): > 100 µM | TGI (RXF 393 renal): 45 µM | TGI (SW-620 colon): > 100 µM | TGI (TK-10 renal): > 100 µM | TGI (NCI-H460 lung): > 100 µM | TGI (UO-31 renal): > 100 µM | TGI (SNB-75 CNS): > 100 µM | TGI (UACC-62 melanoma): > 100 µM | TGI (MOLT-4 leukemia): > 100 µM | TGI (LXFL 529 NSCLC): > 100 µM | TGI (HOP-18 NSCLC): > 100 µM | TGI (DMS 114 small cell lung): > 100 µM | TGI (HCC-2998 colon): > 100 µM | TGI (CCRF-CEM leukemia): > 100 µM | TGI (SF-539 CNS): > 100 µM | TGI (OVCAR-5 ovarian): > 100 µM | TGI (786-0 renal): > 100 µM | TGI (SR leukemia): > 100 µM | TGI (SNB-19 CNS): > 100 µM | TGI (KM20L2 colon): > 100 µM | TGI (SNB-78 CNS): > 100 µM | TGI (IGROV1 ovarian): > 100 µM | TGI (NCI-H522 lung): > 100 µM | TGI (NCI-H23 lung): > 100 µM | TGI (MALME-3M melanoma): > 100 µM | TGI (KM12 colon): > 100 µM | TGI (HT29 colon): > 100 µM | TGI (U251 CNS): > 100 µM | TGI (HCT-15 colon): > 100 µM | TGI (OVCAR-8 ovarian): > 100 µM | TGI (COLO 205 colon): > 100 µM | TGI (RXF-631 renal): > 100 µM | TGI (SN12C renal): > 100 µM | TGI (SF-268 CNS): > 100 µM | TGI (SK-MEL-5 melanoma): > 100 µM | TGI (NCI-H226 lung): > 100 µM | TGI (A498 renal): > 100 µM | TGI (EKVX NSCLC): > 100 µM | TGI (ACHN renal): > 100 µM | TGI (DMS 273 small cell lung): > 100 µM | TGI (M14 melanoma): > 100 µM | TGI (DLD-1 colon): > 100 µM | TGI (HL-60(TB) leukemia): > 100 µM | TGI (UACC-257 melanoma): > 100 µM | TGI (A549 NSCLC): > 100 µM | TGI (OVCAR-4 ovarian): > 100 µM
